Data published in patent publication US20230143612A1 (Arbutus Biopharma Corporation, priority 2020, published 2023).

Molecular target: PD-L1 His protein / PD-1 Fc protein (Homo sapiens, UniProt Q9NZQ7)
Assay: HTRF Assay (PD-1/PD-L1 interaction)
Assay type: binding
Conditions: PD-L1 His 6 nM, PD-1 Fc 6 nM
Procedure, shortened: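 HTRF: PD-L1 His (6 nM final), compound (3-fold dilutions, 20 μM to 0.001 μM final) and PD-1 Fc (6 nM final) preincubated 15 min at room temperature. Anti-human IgG-XL665 and anti-6HIS Tb cryptate (mixed at 6.7 nM and 0.35 nM) then added for 1 h at room temperature before reading.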

Sequence of PD-L1 His protein / PD-1 Fc protein (Q9NZQ7 19-238 limits assumed): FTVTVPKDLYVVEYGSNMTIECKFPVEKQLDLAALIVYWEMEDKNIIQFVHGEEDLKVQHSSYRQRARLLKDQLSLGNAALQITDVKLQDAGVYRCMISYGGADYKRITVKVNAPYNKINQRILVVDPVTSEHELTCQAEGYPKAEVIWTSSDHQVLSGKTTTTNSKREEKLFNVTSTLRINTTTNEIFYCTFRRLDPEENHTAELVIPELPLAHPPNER

Row | SMILES | IC50
1 | Cc1c(-c2ccn3c(=O)c(CNC[C@@H]4CCC(=O)N4)cnc3c2)cccc1-c1cccc(-c2ccc3c(c2)CC(N)C3)c1Cl (mixture of isomers) [Example 40, 8-(3′-(2-Amino-2,3-dihydro-1H-inden-5-yl)-2′-chloro-2-methyl-[1,1′-biphenyl]-3-yl)-3-(((((S)-5-oxopyrrolidin-2-yl)methyl)amino)methyl)-4H-pyrido[1,2-a]pyrimidin-4-one] | 61 nM
2 | Cc1c(OCc2cc(OCc3cncc(C#N)c3)c(CNC[C@@H]3CCC(=O)N3)cc2Cl)cccc1-c1cccc(-c2ccc3c(c2)C(=O)N(C)CC(=O)N3CCNC[C@@H]2CCC(=O)N2)c1C [Example 27, 5-((4-Chloro-5-(((2,2′-dimethyl-3′-(4-methyl-2,5-dioxo-1-(2-((((S)-5-oxopyrrolidin-2-yl)methyl)amino)ethyl)-2,3,4,5-tetrahydro-1H-benzo[e][1,4]diazepin-7-yl)-[1,1′-biphenyl]-3-yl)oxy)methyl)-2-(((((S)-5-oxopyrrolidin-2-yl)methyl)amino)methyl)phenoxy)methyl)nicotinonitrile] | 9.9 nM
3 | COc1nc(-c2cccc(-c3cccc(-c4ccn5c(=O)c(CNC[C@@H](O)CC(=O)N(C)C)cnc5c4)c3Cl)c2Cl)cc(F)c1CNC[C@@H]1CCC(=O)N1 [Example 336, (3S)-4-[[8-[2-Chloro-3-[2-chloro-3-[4-fluoro-6-methoxy-5-[[[(2S)-5-oxopyrrolidin-2-yl]methylamino]methyl]-2-pyridyl]phenyl]phenyl]-4-oxo-pyrido[1,2-a]pyrimidin-3-yl]methylamino]-3-hydroxy-N,N-dimethyl-butanamide] | 0.1 nM
4 | COc1nc(-c2cccc(-c3cccc(-c4ccc5nn(CCO)c(=O)n5c4)c3Cl)c2Cl)ccc1CNC[C@@H]1CCC(=O)N1 [Example 239, (S)-6-(2,2′-Dichloro-3′-(6-methoxy-5-((((5-oxopyrrolidin-2-yl)methyl)amino)methyl)pyridin-2-yl)-[1,1′-biphenyl]-3-yl)-2-(2-hydroxyethyl)-[1,2,4]triazolo[4,3-a]pyridin-3(2H)-one] | 0.1 nM
5 | COc1nc(-c2cccc(-c3cccc(-c4ccn5c(=O)c(CNC[C@@H]6CCC(=O)N6)cnc5c4)c3Cl)c2Cl)ccc1CNCC(=O)O [Example 125, (S)-((6-(2,2′-Dichloro-3′-(4-oxo-3-((((5-oxopyrrolidin-2-yl)methyl)amino)methyl)-4H-pyrido[1,2-a]pyrimidin-8-yl)-[1,1′-biphenyl]-3-yl)-2-methoxypyridin-3-yl)methyl)glycine] | 0.7 nM
6 | Cc1c(COc2cc(OCc3cncc(C#N)c3)c(CNC[C@@H]3CCC(=O)N3)cc2Cl)cccc1-c1cccc(-c2ccc3c(c2)C(=O)N(C)CC(=O)N3CCNC[C@@H]2CCC(=O)N2)c1C [Example 20, 5-((4-Chloro-5-((2,2′-dimethyl-3′-(4-methyl-2,5-dioxo-1-(2-((((S)-5-oxopyrrolidin-2-yl)methyl)amino)ethyl)-2,3,4,5-tetrahydro-1H-benzo[e][1,4]diazepin-7-yl)-[1,1′-biphenyl]-3-yl)methoxy)-2-(((((S)-5-oxopyrrolidin-2-yl)methyl)amino)methyl)phenoxy)methyl)nicotinonitrile] | 4.2 nM
7 | COC[C@@H](NCc1cnc2cc(-c3cccc(-c4cccc(-c5ccc(CNC[C@@H]6CCC(=O)N6)c(OC)n5)c4Cl)c3Cl)ccn2c1=O)C(=O)O [Example 150, N-((8-(2,2′-Dichloro-3′-(6-methoxy-5-(((((S)-5-oxopyrrolidin-2-yl)methyl)amino)methyl)-pyridin-2-yl)-[1,1′-biphenyl]-3-yl)-4-oxo-4H-pyrido[1,2-a]pyrimidin-3-yl)methyl)-O-methyl-D-serine] | 0.3 nM
8 | Cc1c(-c2ccn3c(=O)c(CNCCO)cnc3c2)cccc1-c1cccc(COc2cc(OCc3cncc(C#N)c3)c(CNCCO)cc2Cl)c1C#N [Example 16, 5-((4-Chloro-5-((2-cyano-3′-(3-(((2-hydroxyethyl)amino)methyl)-4-oxo-4H-pyrido[1,2-a]pyrimidin-8-yl)-2′-methyl-[1,1′-biphenyl]-3-yl)methoxy)-2-(((2-hydroxyethyl)amino)methyl)phenoxy)methyl)nicotinonitrile] | 0.7 nM
9 | COc1nc(-c2cccc(-c3cccc(-c4ccn5c(=O)c(CN6C[C@@H](O)C[C@H]6C(=O)O)cnc5c4)c3Cl)c2Cl)ccc1CNC[C@@H]1CCC(=O)N1 [Example 148, (2S,4S)-1-((8-(2,2′-Dichloro-3′-(6-methoxy-5-(((((S)-5-oxopyrrolidin-2-yl)methyl)amino)methyl)pyridin-2-yl)-[1,1′-biphenyl]-3-yl)-4-oxo-4H-pyrido[1,2-a]pyrimidin-3-yl)methyl)-4-hydroxypyrrolidine-2-carboxylic acid] | 0.4 nM
10 | COc1nc(-c2cccc(-c3cccc(-c4ccc5nn(CCCN6C(=O)c7ccccc7C6=O)c(=O)n5c4)c3Cl)c2Cl)ccc1CNC[C@@H]1CCC(=O)N1 [Example 391, (S)-2-(3-(6-(2,2′-Dichloro-3′-(6-methoxy-5-((((5-oxopyrrolidin-2-yl)methyl)amino)methyl)pyridin-2-yl)-[1,1′-biphenyl]-3-yl)-3-oxo-[1,2,4]triazolo[4,3-a]pyridin-2(3H)-yl)propyl)isoindoline-1,3-dione] | 65 nM
11 | CNC(=O)C[C@H](O)CNCc1cnc2cc(-c3cccc(-c4cccc(-c5ccc(CNC[C@@H]6CCC(=O)N6)c(OC)n5)c4Cl)c3Cl)ccn2c1=O [Example 292, (3S)-4-[[8-[2-Chloro-3-[2-chloro-3-[6-methoxy-5-[[[(2S)-5-oxopyrrolidin-2-yl]methylamino]methyl]-2-pyridyl]phenyl]phenyl]-4-oxo-pyrido[1,2-a]pyrimidin-3-yl]methylamino]-3-hydroxy-N-methyl-butanamide] | 0.1 nM
12 | COc1nc(-c2cccc(-c3cccc(-c4ccn5c(=O)c(CNC[C@H](C)OC)cnc5c4)c3Cl)c2Cl)ccc1CNC[C@@H]1CCC(=O)N1 [Example 302, 8-[2-Chloro-3-[2-chloro-3-[6-methoxy-5-[[[(2S)-5-oxopyrrolidin-2-yl]methylamino]methyl]-2-pyridyl]phenyl]phenyl]-3-[[[(2S)-2-methoxypropyl]amino]methyl]pyrido[1,2-a]pyrimidin-4-one] | 35 nM
13 | COc1nc(-c2cccc(-c3cccc(-c4nnc5n4CCN(CCO)C5)c3Cl)c2Cl)ccc1CNC[C@@H]1CCC(=O)N1 [Example 242, (S)-5-((((6-(2,2′-Dichloro-3′-(7-(2-hydroxyethyl)-5,6,7,8-tetrahydro-[1,2,4]triazolo[4,3-a]pyrazin-3-yl)-[1,1′-biphenyl]-3-yl)-2-methoxypyridin-3-yl)methyl)amino)methyl)pyrrolidin-2-one] | 1700 nM
14 | COc1nc(-c2cccc(-c3cccc(-c4cc(C)n5c(=O)c(CNC[C@H](C)O)cnc5c4)c3Cl)c2Cl)ccc1CNC[C@@H]1CCC(=O)N1 [Example 226, 8-(2,2′-Dichloro-3′-(6-methoxy-5-(((((S)-5-oxopyrrolidin-2-yl)methyl)amino)methyl)pyridin-2-yl)-[1,1′-biphenyl]-3-yl)-3-((((S)-2-hydroxypropyl)amino)methyl)-6-methyl-4H-pyrido[1,2-a]pyrimidin-4-one] | 15 nM
15 | Cn1cc(CNC[C@@H]2CCC(=O)N2)c2ccc(-c3cccc(-c4cccc(-c5ccn6c(=O)c(CNC[C@@H]7CCC(=O)N7)cnc6c5)c4Cl)c3Cl)nc21 [Example 416, 8-[2-Chloro-3-[2-chloro-3-[1-methyl-3-[[[(2S)-5-oxopyrrolidin-2-yl]methylamino]methyl]pyrrolo[2,3-b]pyridin-6-yl]phenyl]phenyl]-3-[[[(2S)-5-oxopyrrolidin-2-yl]methylamino]methyl]pyrido[1,2-a]pyrimidin-4-one] | 71 nM
16 | COc1cc(-c2cccc(-c3cccc(-c4ccn5c(=O)c(CNC[C@@H]6CCC(=O)N6)cnc5c4)c3Cl)c2Cl)cc(F)c1CNC[C@@H]1CCC(=O)N1 [Example 104, 8-(2,2′-Dichloro-3″-fluoro-5″-methoxy-4″-(((((S)-5-oxopyrrolidin-2-yl)methyl)amino)methyl)-[1,1′:3′,1″-terphenyl]-3-yl)-3-(((((S)-5-oxopyrrolidin-2-yl)methyl)amino)methyl)-4H-pyrido[1,2-a]pyrimidin-4-one] | 8.8 nM
17 | Cc1c(COc2cc(OCc3cncc(C#N)c3)c(CN3CC(CO)C3)cc2Cl)cccc1-c1cccc(-c2ccc3c(c2)C(=O)N(C)CC(=O)N3CCN2CC(CO)C2)c1C [Example 26, 5-((4-Chloro-5-((3′-(1-(2-(3-(hydroxymethyl)azetidin-1-yl)ethyl)-4-methyl-2,5-dioxo-2,3,4,5-tetrahydro-1H-benzo[e][1,4]diazepin-7-yl)-2,2′-dimethyl-[1,1′-biphenyl]-3-yl)methoxy)-2-((3-(hydroxymethyl)azetidin-1-yl)methyl)phenoxy)methyl)nicotinonitrile] | 0.7 nM
18 | COc1nc(-c2cccc(-c3cccc(-c4cc5c(=O)n(C)c(CNCC(C)(C)C(F)(F)F)nn5c4)c3Cl)c2Cl)ccc1CNC[C@@H]1CCC(=O)N1 [Example 466, (S)-6-(2,2′-Dichloro-3′-(6-methoxy-5-((((5-oxopyrrolidin-2-yl)methyl)amino)methyl)pyridin-2-yl)-[1,1′-biphenyl]-3-yl)-3-methyl-2-(((3,3,3-trifluoro-2,2-dimethylpropyl)amino)methyl) pyrrolo[2,1-f][1,2,4]triazin-4(3H)-one] | 63 nM
19 | COC(=O)CNCc1cnc2cc(-c3cccc(-c4cccc(-c5ccc(CNC[C@@H]6CCC(=O)N6)c(OC)n5)c4Cl)c3Cl)cc(C)n2c1=O [Example 294, (S)-Methyl 2-(((8-(2,2′-dichloro-3′-(6-methoxy-5-((((5-oxopyrrolidin-2-yl)methyl)amino)methyl)pyridin-2-yl)-[1,1′-biphenyl]-3-yl)-6-methyl-4-oxo-4H-pyrido[1,2-a]pyrimidin-3-yl)methyl)amino)acetate] | 0.4 nM
